Measurements: patent US9725459B2, “3-oxo-tetrahydro-furo[3,2-B]pyrrol-4(5H)-yl) derivatives I” (GRÜNENTHAL GMBH, priority 2014, dated 2017)

Assays:
Assay type in all cases: biochemical
[1] = target: human cathepsin S (CatS) (Homo sapiens (Human), UniProt P25774); assay: CatS functional enzyme assay; settings: for Selectivity Ki(hCatS)/Ki(hCatK): ratio Ki(hCatS)/Ki(hCatK); for Ki: recombinant human CatS, substrate Z-VVR-AMC 5 μM, pH 6.5, Ki by Cheng Prusoff equation, read-out: hCatS, Ki
Outline: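 Recombinant human enzymes were incubated 10 min at RT with AMC substrate: CatS 0.0007 mU/well with Z-VVR-AMC 5 µM; CatK 0.00175 mU/well with Z-FR-AMC 40 µM; CatL 0.000874 mU/well with Z-VVR-AMC 40 µM. Fluorescence gave IC50, converted to Ki by Cheng-Prusoff.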

[2] = target: human cathepsin K (CatK) (Homo sapiens (Human), UniProt P43235); assay: CatK functional enzyme assay; settings: recombinant human CatK, substrate Z-FR-AMC 40 μM, pH 5.5; Ki by Cheng Prusoff equation; read-out: hCatK, Ki
Sequence of human cathepsin K (CatK) (P43235 115-329): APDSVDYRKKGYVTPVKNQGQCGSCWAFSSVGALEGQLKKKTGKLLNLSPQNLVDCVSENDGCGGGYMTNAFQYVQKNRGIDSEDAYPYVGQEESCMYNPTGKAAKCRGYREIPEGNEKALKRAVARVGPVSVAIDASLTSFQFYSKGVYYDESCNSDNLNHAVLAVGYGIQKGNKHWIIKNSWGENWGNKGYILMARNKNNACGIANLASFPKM
Outline: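 Recombinant human enzymes in 50 mM NaOAc, 10 mM EDTA, 1 mM DTT, 0.01% Triton X-100, pH 5.5, 10 min at RT. CatK: 0.00175 mU/well with 40 μM Z-FR-AMC; CatL: 0.000874 mU/well with 40 μM Z-VVR-AMC. AMC fluorescence read; IC50 converted to Ki via Cheng–Prusoff.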

[3] = target: human cathepsin L (CatL) (Homo sapiens (Human), UniProt P07711); assay: CatL functional enzyme assay; settings: read-out: hCatL, inhibition [%] at 31.6 μM
Sequence of human cathepsin L (CatL) (P07711 114-333): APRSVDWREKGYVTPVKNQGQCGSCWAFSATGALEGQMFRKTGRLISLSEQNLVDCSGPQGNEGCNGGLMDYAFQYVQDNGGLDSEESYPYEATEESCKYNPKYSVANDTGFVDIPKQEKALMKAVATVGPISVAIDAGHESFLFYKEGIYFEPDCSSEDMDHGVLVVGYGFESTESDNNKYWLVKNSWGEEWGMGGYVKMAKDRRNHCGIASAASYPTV

Sequence of human cathepsin S (CatS) (P25774 115-331): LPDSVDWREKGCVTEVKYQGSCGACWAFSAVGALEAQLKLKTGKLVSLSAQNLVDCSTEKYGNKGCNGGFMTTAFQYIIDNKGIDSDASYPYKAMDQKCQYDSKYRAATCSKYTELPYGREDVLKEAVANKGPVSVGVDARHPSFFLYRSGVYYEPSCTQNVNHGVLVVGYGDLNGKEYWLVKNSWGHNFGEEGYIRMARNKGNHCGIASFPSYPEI

| Selectivity Ki(hCatS)/Ki(hCatK) [1] | Ki [1] [nM] | Ki [2] [nM] | inhibition at 31.6 µM [3] [%] | SMILES |
| --- | --- | --- | --- | --- |
| 1.2 | 21 | 18 | 28 | Cc1cc(-c2cnc(C(=O)N[C@H](C(=O)N3C[C@H](Cl)[C@H]4OCC(=O)[C@H]43)C3CCCCC3)s2)cnn1 [Example 75, N-((S)-2-((3aS,6S,6aS)-6-chloro-3-oxotetrahydro-2H-furo[3,2-b]pyrrol-4(5H)-yl)-1-cyclohexyl-2-oxoethyl)-5-(6-methylpyridazin-4-yl)thiazole-2-carboxamide] |
| 37.8 | 453 | 12 | 39 | O=C(N[C@H](C(=O)N1C[C@H](Cl)[C@H]2OCC(=O)[C@H]21)C1CCCCC1)c1cc(F)c(-c2ccnnc2)s1 [Example 40, N-((S)-2-((3aS,6S,6aS)-6-chloro-3-oxotetrahydro-2H-furo[3,2-b]pyrrol-4(5H)-yl)-1-cyclohexyl-2-oxoethyl)-4-fluoro-5-(pyridazin-4-yl)thiophene-2-carboxamide] |
| 1.3 | 25 | 20 | 12 | Cc1cc(-c2cnc(C(=O)N[C@H](C(=O)N3C[C@H](Cl)[C@H]4OCC(=O)[C@H]43)C3CCCCC3)s2)cn[n+]1[O-] [Example 77, 4-(2-(((S)-2-((3aS,6S,6aS)-6-chloro-3-oxotetrahydro-2H-furo[3,2-b]pyrrol-4(5H)-yl)-1-cyclohexyl-2-oxoethyl)carbamoyl)thiazol-5-yl)-6-methylpyridazine 1-oxide] |
